Laboratory results as given in patent US20230181540A1, “COMPOSITIONS AND METHODS FOR ACTIVATING SIGNALING THROUGH THE CB2 CANNABINOID RECEPTOR FOR TREATING AND PREVENTING LYSOSOMAL STORAGE DISEASES AND DISORDERS” (Wylder Nation Foundation, priority 2020, published 2023).
“Also recorded” adds a separate entry of the source.

How the values were obtained:
MCP-1 [1] = assay: MCP-1 expression in liver and plasma of Farber disease mice; assay type: in vivo, mouse; conditions: 5 mg/kg i.p. 3x a week for 6 weeks, vs untreated Farber mice
Experimental: Ten 2.5-week-old Farber disease mice were treated 3x a week by intraperitoneal injection of JWH133 at a dose of 5 mg/kg. After 6 weeks the 8.5-week-old mice were euthanized and their organs and plasma collected and processed for immunohistochemical analysis of MCP-1 expression. […] Thus, CB2 agonists, such as JWH133, can be used to treat Farber disease and other lysosomal storage disorders (* = p<0.01).

MCP-1 [2] = assay: MCP-1 released into culture media by skin fibroblasts from a patient with MPS IIIA (ELISA); assay type: cell-based, human; conditions: 3.2 micromoles/ml, 72 or 96 hr, vs cultures without drug, p < 0.01
Experimental: Skin fibroblasts from a patient with MPS IIIA were grown to ~70% confluency and the CB2 agonists JHW133 and PM226 were added to the culture media for 72 or 96 hr at a dose of 3.2 micromoles/ml (black and gray bars, respectively). Control: cultures without drug added (white bars). […] Bar heights indicate the mean values from three independent experiments. Vertical lines indicate the standard error of the mean. * = p < 0.01 comparing with and without drug.

Farber mice = assay: Survival and body weight of Farber mice treated with CB2 agonist
Experimental: Two Farber mouse groups were studied (n=12 mice per group). […] In the control group they were injected with DMSO alone. Weight was monitored daily.

CB2 = assay: Immunohistochemical analysis of CB2 expression in organs of Farber disease mice; assay type: in vivo, mouse; conditions: 5 mg/kg i.p. 3x a week for 6 weeks, 8.5-week-old, vs untreated Farber mice
Experimental: Ten 2.5-week-old Farber disease mice were treated once weekly with recombinant acid ceramidase by intraperitoneal injection at a dose of 10 mg/kg. After 6 injections the 8.5-week-old mice were euthanized and their organs collected and processed for immunohistochemical analysis of CB2 expression. […] Thus, CB2 can be used as a biomarker to monitor the efficacy of treatment for Farber disease and other lysosomal storage disorders.
Ten 2.5-week-old Farber disease mice were treated 3x a week by intraperitoneal injection of JWH133 at a dose of 5 mg/kg. After 6 weeks the 8.5-week-old mice were euthanized and their organs collected and processed for immunohistochemical analysis of CB2 expression. […] Thus, CB2 agonists, such as JWH133, can be used to treat Farber disease and other lysosomal storage disorders.

[3] = test system: mouse model of Niemann-Pick diseases type C1 (NPC1); conditions: cited from earlier work
[4] = test system: mouse model of Sanfilippo disease (mucopolysaccharidosis IIIA); conditions: cited from earlier work

CCCC(C)(C)c1ccc2c(c1)OC(C)(C)[C@@H]1CC=C(C)C[C@@H]21 [JWH133]
MCP-1 expression in the liver (MCP-1 [1]): significantly reduced | MCP-1 expression in plasma (MCP-1 [1]; p<0.01): significantly reduced | levels of MCP-1 released into the culture media (MCP-1 [2]): able to reduce the levels of MCP-1 released into the culture media | day of natural death in the treatment group (Farber mice; Farber mice, 5 mg/kg i.p. three times a week from 2 weeks of age): 47 days | survival / life span (Farber mice; Farber mice, 5 mg/kg i.p. three times a week in DMSO from 2 weeks of age, vs vehicle control (all dead by day 44)): survived longer than vehicle control treated mice | body weight (Farber mice; Farber mice, 5 mg/kg i.p. three times a week, throughout the study, vs vehicle alone, 5 mg/kg): significantly greater; also recorded: significant prevention of weight loss | number of mice that died naturally in the treatment group (Farber mice; of 12 Farber mice, 5 mg/kg i.p. three times a week, remaining 11 euthanized at day 58): 1 | CB2 expression (immunohistochemistry) (CB2): significantly reduced

CCCCCCC(C)(C)c1cc(OC)c2c(c1)OC(C)(C)c1cnoc1-2 [PM226]
levels of MCP-1 released into the culture media (MCP-1 [2]): able to reduce the levels of MCP-1 released into the culture media

CC(=O)Oc1ccccc1C(=O)O [aspirin]
treatment efficacy [3]: failed to show treatment efficacy | expression of inflammation-related genes ([4]; chronic treatment for 6 months with high doses): normalize expression of some inflammation-related genes

CC(C)Cc1ccc(C(C)C(=O)O)cc1 (centres unmarked) [ibuprofen]
lifespan ([3]; high doses): prolong the lifespan of the mice by about two weeks | onset of clinical signs ([3]; high doses): modestly slow the onset of clinical signs

pentosan polysulfate [PPS]
CNS pathology ([4]; mouse model of MPS IIIA, attributed to systemic effects): some improvements in CNS pathology were noted
